Some test systems named below: A498; DMS-114; HL-60; HOP-92; K562; KM12; MOLT-4; NCI-H460; OVCAR-3; OVCAR-5; OVCAR-8; SF-268; SK-MEL-2; SK-OV-3; SN12C; SNB-19.
Holding throughout (experiment): NCI tumour cell line growth inhibition, 48 h

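In this assay, cells in 96-well plates receive the compound at five concentrations for 48 hours. Endpoints are linearly interpolated between the surrounding concentrations. Here, GI50 denotes the concentration required for 50% inhibition of growth.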 Calls of active or inactive are those of the source. No stated cut-off is given here; in the data, active = GI50 up to about 1.1 µM and inactive = higher. A value given as a limit tells only on which side of the number the result lay.

`CCCC(=O)OCC1OC(n2ccc(N)nc2=O)C(OC(=O)CCC)C1OC(=O)CCC` (stereo not drawn): the GI50 was 5.77 µM (inactive) in the test with A498; > 100 µM (inactive) in the test on DMS-114; 1.67 µM (inactive) in the test on HL-60; > 45.1 µM (inactive) in the test on HOP-92; > 100 µM (inactive) in the test on K562; > 100 µM (inactive) in the test with KM12. The GI50 with MOLT-4 is 0.33 µM (active); with NCI-H460 it was 2.74 µM (inactive); in the test with OVCAR-3, > 100 µM (inactive); with OVCAR-5, 15.5 µM (inactive); with OVCAR-8, 6.1 µM (inactive); in the test on SF-268, > 42.4 µM (inactive). The GI50 is > 85.9 µM (inactive) in the test on SK-MEL-2, > 100 µM (inactive) in the test with SK-OV-3, 16.5 µM (inactive) with SN12C and 24.8 µM (inactive) with SNB-19.
Consider `O=c1cc2ccccc2nn1Cc1ccccc1Cl`, for which the GI50 in the test with A498 was > 100 µM (inactive); in the test with DMS-114, 67.6 µM (inactive); in the test with HOP-92 it was 71.9 µM (inactive); in the test with K562, 85.3 µM (inactive); in the test on KM12, > 100 µM (inactive); in the test on NCI-H460, > 100 µM (inactive). Moreover, the GI50 in the test with OVCAR-3 was 94.6 µM (inactive); in the test on OVCAR-5, > 100 µM (inactive); in the test with OVCAR-8, > 100 µM (inactive); with SF-268, > 100 µM (inactive); in the test on SK-MEL-2, > 100 µM (inactive); in the test with SK-OV-3, > 100 µM (inactive). For the same compound, the GI50 in the test with SN12C and in the test with SNB-19 was > 100 µM (inactive) throughout.
For `CCOc1ccc(C2=C(Cl)c3cc(OC)c(OC)cc3C2Cl)cc1` (stereo not drawn), the GI50 in the test with A498 is 19.8 µM (inactive); in the test on DMS-114, 18.6 µM (inactive); in the test on HL-60, 13.4 µM (inactive); in the test on HOP-92, 25.4 µM (inactive); in the test on K562, > 10 µM (inactive); in the test with MOLT-4 it was 19.5 µM (inactive). Also, the GI50 in the test on NCI-H460 is 29.3 µM (inactive); in the test on OVCAR-3, 59 µM (inactive); in the test with OVCAR-8, 36.4 µM (inactive); with SF-268 it was 59.6 µM (inactive); in the test with SK-MEL-2, 23.1 µM (inactive); in the test with SK-OV-3, > 100 µM (inactive). Further, the values for the GI50 in the test on SN12C and with SNB-19 were 42.4 µM (inactive) and > 100 µM (inactive), respectively.
Turning to `COc1ccc(C=O)c(NC(=O)C(C)C)c1`, the GI50 in the test with A498 is 49.7 µM (inactive); in the test on DMS-114, 24.4 µM (inactive); with HOP-92, 18.2 µM (inactive); in the test on K562, 31 µM (inactive); in the test with KM12 it was > 10 µM (inactive); in the test with MOLT-4, 21.3 µM (inactive). For the same compound, the GI50 was > 100 µM (inactive) with NCI-H460; 30.5 µM (inactive) with OVCAR-3; > 100 µM (inactive) in the test with OVCAR-5; 30.8 µM (inactive) in the test with OVCAR-8; 36.2 µM (inactive) in the test with SF-268; 37.6 µM (inactive) with SK-MEL-2. Besides, the GI50 in the test on SK-OV-3 was > 100 µM (inactive); in the test with SN12C it was 23 µM (inactive); with SNB-19, 72.1 µM (inactive).
`COC(=O)c1ccc(/N=N/N(C)COc2ccc(Br)cc2)cc1`: the GI50 is 37.7 µM (inactive) in the test on A498; 55.7 µM (inactive) in the test on DMS-114; 20.2 µM (inactive) in the test with HL-60; > 53 µM (inactive) in the test with HOP-92; 38.1 µM (inactive) with K562; 75.5 µM (inactive) with KM12. In addition, the GI50 with MOLT-4 is 26.6 µM (inactive); in the test on NCI-H460, 40.6 µM (inactive); with OVCAR-3, > 100 µM (inactive); in the test with OVCAR-5 it was > 83.8 µM (inactive); in the test with OVCAR-8, > 81.5 µM (inactive); with SF-268, > 75.5 µM (inactive). The GI50 in the test with SK-MEL-2 is > 100 µM (inactive); with SK-OV-3, > 100 µM (inactive); in the test on SN12C, 68.5 µM (inactive); in the test with SNB-19, > 100 µM (inactive).
For the compound `C[C@]12CCC(=O)CC1CCCC2=O` (stereo partly drawn), the GI50 in the test with A498, in the test on DMS-114, in the test on HL-60, with HOP-92, in the test with K562 and in the test with KM12 was > 100 µM (inactive) throughout. The GI50 with MOLT-4, with NCI-H460, with OVCAR-3, in the test on OVCAR-8, with SF-268 and in the test on SK-MEL-2 was > 100 µM (inactive) throughout. Further, the GI50 in the test on SK-OV-3, with SN12C and in the test with SNB-19 was > 100 µM (inactive) each time.
`CC(C)OC(=O)c1cc(NC(=O)C(C)(C)C)c(F)cc1Cl`: the GI50 in the test with A498 was > 100 µM (inactive); in the test with DMS-114, > 100 µM (inactive); with HL-60, 62.5 µM (inactive); in the test with HOP-92, > 100 µM (inactive); in the test with K562, > 100 µM (inactive); in the test with KM12, > 100 µM (inactive). For the same compound, the GI50 in the test with MOLT-4, with NCI-H460, with OVCAR-3, with OVCAR-5, in the test with OVCAR-8 and in the test on SF-268 was > 100 µM (inactive) each time. In addition, the GI50 in the test on SK-MEL-2, in the test on SK-OV-3, with SN12C and in the test with SNB-19 was > 100 µM (inactive) in each case.
As to `CC1S(=O)(=O)OCCOS1(=O)=O`, the GI50 is > 100 µM (inactive) in the test on A498; 39.2 µM (inactive) in the test on DMS-114; 29.7 µM (inactive) in the test with HL-60; > 100 µM (inactive) in the test with HOP-92; > 100 µM (inactive) with K562; > 100 µM (inactive) in the test with KM12. The GI50 with MOLT-4 was 18 µM (inactive); with NCI-H460 it was 31.7 µM (inactive); with OVCAR-3, 74 µM (inactive); in the test on OVCAR-5, > 100 µM (inactive); with OVCAR-8, > 100 µM (inactive); in the test with SF-268, 32.1 µM (inactive). In addition, the GI50 is > 100 µM (inactive) in the test on SK-MEL-2, > 100 µM (inactive) with SK-OV-3, 77.4 µM (inactive) in the test with SN12C and 39.7 µM (inactive) with SNB-19.
On to `COc1cc([C@@H]2c3cc4c(cc3[C@@H](NC(=O)c3ccc(C#N)cc3)C3COC(=O)[C@@H]32)OCO4)cc(OC)c1O` (stereo partly drawn), for which the GI50 in the test on A498 is 1.02 µM (active); in the test on DMS-114 it was 0.315 µM (active); in the test on HL-60 it was 0.138 µM (active); with HOP-92 it was 0.586 µM (active); with K562, 1.63 µM (inactive); in the test on KM12, 1.02 µM (active). Moreover, the GI50 in the test with MOLT-4 is 3.63 µM (inactive); in the test with NCI-H460 it was < 0.01 µM (active); in the test with OVCAR-3, 1.85 µM (inactive); in the test with OVCAR-5, 0.794 µM (active); in the test with OVCAR-8, 0.719 µM (active); with SF-268, 0.847 µM (active). For the same compound, the GI50 with SK-MEL-2 was 2.29 µM (inactive); in the test on SK-OV-3, 0.374 µM (active); with SN12C, 0.207 µM (active); in the test with SNB-19, 0.348 µM (active).

For the origin of these results see ChEMBL document CHEMBL1201862, “PubChem BioAssay data set” (2004).
